Measurements taken from patent US20100041089A1, “IMPROVED METHOD FOR DETECTING CHEMICAL […]” (priority 2006, published 2010).

System: yeast genes (expressed mRNA)
Assay: DNA chip measurement of expressed mRNA of yeast genes after culture with a toxic chemical substance
Assay type: cell-based, Saccharomyces cerevisiae S288C
Method in brief: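 Expression is given as treated/untreated fluorescence ratio on a whole-genome yeast DNA chip, a ratio of two or more being significant. Log-phase S288C cultures in YPD at 25 °C received the chemical for 2 h at a dose that slows growth without killing. mRNA was reverse-transcribed with Cy3- or Cy5-dUTP.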

`C=CC=O` [(14), Acrolein] was tested, and the “The level of expressed mRNA in the presence of chemical substance/The level of expressed mRNA in the absence of chemical substance” value (yeast gene YMR316W, cultured two hours with substance) was 1.3, the “The level of expressed mRNA in the presence of chemical substance/The level of expressed mRNA in the absence of chemical substance” value (yeast gene YNL036W) was 5.1 and the “The level of expressed mRNA in the presence of chemical substance/The level of expressed mRNA in the absence of chemical substance” value (yeast gene YNL044W, cultured two hours with substance) was 1.2. For the same compound, the “The level of expressed mRNA in the presence of chemical substance/The level of expressed mRNA in the absence of chemical substance” value (yeast gene YNL074C, cultured two hours with substance) was 0.6, the “The level of expressed mRNA in the presence of chemical substance/The level of expressed mRNA in the absence of chemical substance” value (yeast gene YNL092W, cultured two hours with substance) was 1.2 and the “The level of expressed mRNA in the presence of chemical substance/The level of expressed mRNA in the absence of chemical substance” value (yeast gene YNL115C, cultured two hours with substance) was 1.0. The “The level of expressed mRNA in the presence of chemical substance/The level of expressed mRNA in the absence of chemical substance” value (yeast gene YNL155W, cultured two hours with substance) was 2.1, the “The level of expressed mRNA in the presence of chemical substance/The level of expressed mRNA in the absence of chemical substance” value (yeast gene YNL156C, cultured two hours with substance) was 1.4 and the “The level of expressed mRNA in the presence of chemical substance/The level of expressed mRNA in the absence of chemical substance” value (yeast gene YNL190W, cultured two hours with substance) was 0.6. The “The level of expressed mRNA in the presence of chemical substance/The level of expressed mRNA in the absence of chemical substance” value (yeast gene YNL195C, cultured two hours with the chemical substance) was 1.5, the “The level of expressed mRNA in the presence of chemical substance/The level of expressed mRNA in the absence of chemical substance” value (yeast gene YNL208W, cultured two hours with substance) was 1.0 and the “The level of expressed mRNA in the presence of chemical substance/The level of expressed mRNA in the absence of chemical substance” value (yeast gene YNL234W, cultured two hours with substance) was 1.5. For the same compound, the “The level of expressed mRNA in the presence of chemical substance/The level of expressed mRNA in the absence of chemical substance” value (yeast gene YNL281W, cultured two hours with substance) was 1.2, the “The level of expressed mRNA in the presence of chemical substance/The level of expressed mRNA in the absence of chemical substance” value (yeast gene YNL300W, cultured two hours with substance) was 0.8 and the “The level of expressed mRNA in the presence of chemical substance/The level of expressed mRNA in the absence of chemical substance” value (yeast gene YNL305C, cultured two hours with substance) was 1.3. The “The level of expressed mRNA in the presence of chemical substance/The level of expressed mRNA in the absence of chemical substance” value (yeast gene YNL335W) was 4.6, the “The level of expressed mRNA in the presence of chemical substance/The level of expressed mRNA in the absence of chemical substance” value (yeast gene YNR064C, cultured two hours with substance) was 0.8 and the “The level of expressed mRNA in the presence of chemical substance/The level of expressed mRNA in the absence of chemical substance” value (yeast gene YNR068C, cultured two hours with substance) was 1.8. The “The level of expressed mRNA in the presence of chemical substance/The level of expressed mRNA in the absence of chemical substance” value (yeast gene YOL032W, cultured two hours with substance) was 1.3, the “The level of expressed mRNA in the presence of chemical substance/The level of expressed mRNA in the absence of chemical substance” value (yeast gene YOL036W, cultured two hours with substance) was 1.0 and the “The level of expressed mRNA in the presence of chemical substance/The level of expressed mRNA in the absence of chemical substance” value (yeast gene YOL047C, cultured two hours with substance) was 1.2. For the same compound, the “The level of expressed mRNA in the presence of chemical substance/The level of expressed mRNA in the absence of chemical substance” value (yeast gene YOL071W, cultured two hours with substance) was 2.5, the “The level of expressed mRNA in the presence of chemical substance/The level of expressed mRNA in the absence of chemical substance” value (yeast gene YOL082W, cultured two hours with substance) was 1.4 and the “The level of expressed mRNA in the presence of chemical substance/The level of expressed mRNA in the absence of chemical substance” value (yeast gene YOL083W, cultured two hours with substance) was 1.4. The “The level of expressed mRNA in the presence of chemical substance/The level of expressed mRNA in the absence of chemical substance” value (yeast gene YOL117W, cultured two hours with substance) was 1.7, the “The level of expressed mRNA in the presence of chemical substance/The level of expressed mRNA in the absence of chemical substance” value (yeast gene YOL131W, cultured two hours with substance) was 2.3 and the “The level of expressed mRNA in the presence of chemical substance/The level of expressed mRNA in the absence of chemical substance” value (yeast gene YOL150C, cultured two hours with substance) was 5.7. For the same compound, the “The level of expressed mRNA in the presence of chemical substance/The level of expressed mRNA in the absence of chemical substance” value (yeast gene YOL162W, cultured two hours with substance) was 1.4, the “The level of expressed mRNA in the presence of chemical substance/The level of expressed mRNA in the absence of chemical substance” value (yeast gene YOR019W, cultured two hours with substance) was 1.4 and the “The level of expressed mRNA in the presence of chemical substance/The level of expressed mRNA in the absence of chemical substance” value (yeast gene YOR049C, cultured two hours with substance) was 1.5. For the same compound, the “The level of expressed mRNA in the presence of chemical substance/The level of expressed mRNA in the absence of chemical substance” value (yeast gene YOR197W, cultured two hours with substance) was 0.7, the “The level of expressed mRNA in the presence of chemical substance/The level of expressed mRNA in the absence of chemical substance” value (yeast gene YOR248W, cultured two hours with substance) was 0.5 and the “The level of expressed mRNA in the presence of chemical substance/The level of expressed mRNA in the absence of chemical substance” value (yeast gene YOR338W, cultured two hours with substance) was 2.5. For the same compound, the “The level of expressed mRNA in the presence of chemical substance/The level of expressed mRNA in the absence of chemical substance” value (yeast gene YPL052W, cultured two hours with substance) was 3.2, the “The level of expressed mRNA in the presence of chemical substance/The level of expressed mRNA in the absence of chemical substance” value (yeast gene YPL087W, cultured two hours with substance) was 1.2 and the “The level of expressed mRNA in the presence of chemical substance/The level of expressed mRNA in the absence of chemical substance” value (yeast gene YPL171C, cultured for two hours with substance) was 9.3. The “The level of expressed mRNA in the presence of chemical substance/The level of expressed mRNA in the absence of chemical substance” value (yeast gene YPL196W, cultured two hours with substance) was 1.6, the “The level of expressed mRNA in the presence of chemical substance/The level of expressed mRNA in the absence of chemical substance” value (yeast gene YPL206C, cultured two hours with substance) was 1.1 and the “The level of expressed mRNA in the presence of chemical substance/The level of expressed mRNA in the absence of chemical substance” value (yeast gene YPL222W, cultured two hours with substance) was 1.1. For the same compound, the “The level of expressed mRNA in the presence of chemical substance/The level of expressed mRNA in the absence of chemical substance” value (yeast gene YPR023C, cultured two hours with substance) was 0.9, the “The level of expressed mRNA in the presence of chemical substance/The level of expressed mRNA in the absence of chemical substance” value (yeast gene YPR079W, cultured two hours with substance) was 1.3 and the “The level of expressed mRNA in the presence of chemical substance/The level of expressed mRNA in the absence of chemical substance” value (yeast gene YPR151C, cultured two hours with substance) was 1.4.
